Measurements from patent US20200085749A1, “IMMEDIATE-RELEASE TABLETS CONTAINING A DRUG AND PROCESSES FOR FORMING THE TABLETS” (Genentech, Inc., priority 2015, published 2020).

How the values were obtained:
[1] = 24-hour solubility of active drug in buffers across the physiological pH range; format: physicochemical; settings: 37° C.
Protocol: Cobimetinib is considered to be a high-solubility, moderate-to-high permeability compound with in vivo absorption/pharmacokinetic characteristics consistent with Biopharmaceutics Classification System (BCS) Class 1. […] An active drug is considered highly soluble when the highest dose strength is soluble in <250 mL water over a pH range of 1 to 7.5.

[2] = tested on: unresectable or metastatic melanoma that is BRAF^v600E mutation-positive; settings: cited from earlier work
[3] = tested on: BRAF^v600 mutation-positive advance melanoma; settings: cited from earlier work

Row | Solubility ([1]; 50 mM Acetate pH 4.5 (pH measured 4.5)) [µg/mL] | Solubility ([1]; 50 mM Phosphate pH 6.8 (pH measured 6.8)) [µg/mL] | Solubility ([1]; 50 mM Phosphate pH 7.5 (pH measured 7.5)) [µg/mL] | Solubility ([1]; 0.1M HCl pH 1.1 (pH measured 1.9)) [µg/mL] | Solubility ([1]; FaSSIF pH 6.5 (pH measured 6.4)) [µg/mL] | Solubility ([1]; FeSSIF pH 5.0 (pH measured 5.0)) [µg/mL] | Solubility ([1]; Water, pH Neutral (pH measured 7.5)) [µg/mL] | Compound | decrease in the risk of disease progression or death ([2]; compared with dacarbazine) [%] | reduction in the risk of death ([2]; compared with dacarbazine) [%] | response rates ([2]; human, in vivo) | median progression-free survival [3] [months]
1 | 1080 | 780 | 730 | 48210 | 480 | 4130 | 720 | (S)-[3,4-Difluoro-2-(2-fluoro-4-iodoanilino)phenyl]{3-hydroxy-3-[(2S)-piperidin-2-yl]azetidin-1-yl} methanone [cobimetinib hemifumarate] |  |  |  | 
2 |  |  |  |  |  |  |  | CCCS(=O)(=O)Nc1ccc(F)c(C(=O)c2c[nH]c3ncc(-c4ccc(Cl)cc4)cc23)c1F [vemurafenib, propane-1-sulfonic acid {3-[5-(4-chlorophenyl)-1H-pyrrolo[2,3-b]pyridine-3-carbonyl]-2,4-difluoro-phenyl}-amide] | 74 | 63 | greater than 50% | 6.2
